# Source: EP4603105A1, “PHARMACEUTICAL COMPOSITION CONTAINING CYCLIC COMPOUND HAVING SELECTIVE KRAS INHIBITORY EFFECT AGAINST HRAS AND NRAS” (CHUGAI SEIYAKU KABUSHIKI KAISHA, priority 2022, dated 2024)
# *1 amine or outer side, *2 acyl side, *3 side chain or, on linkers, in order; H or OH if unused. Where a SMILES comes first, the peptide text is derived from it. Bridges are numbered along the chain shown (N, C = ends). [ ]: non-standard residue; d: D form. The star is where a group is joined. hPhe(3,5-F2-4-CF3) = N[C@@H](CCc1cc(F)c(C(F)(F)F)c(F)c1)C(=O)O; hPhe(3-Cl-4-CF3) = N[C@@H](CCc1ccc(C(F)(F)F)c(Cl)c1)C(=O)O; NPrPhe(4-CF3) = CCCN[C@@H](Cc1ccc(C(F)(F)F)cc1)C(=O)O; X28 = Cc1ccc(C[C@@H](C(=O)[*:2])N(CC2CCCCC2)[*:1])cc1; NMeAbu(4,4,4-F3) = CN[C@@H](CC(F)(F)F)C(=O)O; NMeGly(cPent) = CN[C@H](C(=O)O)C1CCCC1; Pro(4,4-F2) = O=C(O)[C@@H]1CC(F)(F)CN1; NMeD = CN[C@@H](CC(=O)O)C(=O)O; NMeL = CN[C@@H](CC(C)C)C(=O)O; Morpholide = C1CN(*)CCO1; NMeA = CN[C@@H](C)C(=O)O; Ac5c = NC1(C(=O)O)CCCC1; Aze = O=C(O)[C@@H]1CCN1; Ac4c = NC1(C(=O)O)CCC1; Sar = CNCC(=O)O
# What was measured:
# [1] = biological target: GDP-bound NRAS wild-type protein (Homo sapiens, UniProt P01111); experiment: Binding to NRAS by surface plasmon resonance (SPR), KD and KD ratio to KRAS
# Chain of GDP-bound NRAS wild-type protein (P01111 whole entry): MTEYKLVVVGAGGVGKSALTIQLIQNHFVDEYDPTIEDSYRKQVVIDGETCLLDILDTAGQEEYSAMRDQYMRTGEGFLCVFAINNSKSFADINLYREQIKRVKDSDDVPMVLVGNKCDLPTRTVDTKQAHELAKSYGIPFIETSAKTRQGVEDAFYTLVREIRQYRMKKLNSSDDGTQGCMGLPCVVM
# In short: (§1)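 Biotinylated GDP-bound RAS was captured at about 100–300 RU. Running buffer: HBS pH 7.4, 10 mM MgCl2, 10 µM GDP, 1 mM DTT, 0.01% Tween 20, 4% DMSO.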
# [2] = biological target: HRAS wild-type protein (Homo sapiens, UniProt P01112); experiment: Binding to HRAS by surface plasmon resonance (SPR), KD and KD ratio to KRAS
# Chain of HRAS wild-type protein (P01112 whole entry): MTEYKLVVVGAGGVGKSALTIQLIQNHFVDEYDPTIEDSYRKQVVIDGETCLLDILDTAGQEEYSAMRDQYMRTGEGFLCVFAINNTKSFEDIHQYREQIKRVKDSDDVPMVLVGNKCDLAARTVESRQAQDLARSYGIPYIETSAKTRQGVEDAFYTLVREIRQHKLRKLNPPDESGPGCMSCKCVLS
# In short: as §1
# [3] = tested on: human lung cancer strain NCI-H441; type: cell-based
# In short: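 Step one: dispense the test compound in serial DMSO dilutions. Step three: add the reagent and measure […].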
# [4] = ratio of the KD value with respect to GDP-bound NRAS wild-type protein to the KD value with respect to KRAS
# [5] = ratio of the KD value with respect to HRAS wild-type protein to the KD value with respect to KRAS
# [6] = ratio of KD for GDP-bound NRAS wild-type protein to KD for KRAS
# [7] = ratio of KD for HRAS wild-type protein to KD for KRAS
# [8] = ratio of KD value for GDP-bound NRAS wild-type protein to KD value for KRAS (SPR)
# [9] = ratio of KD value for HRAS wild-type protein to KD value for KRAS (SPR)
Compound,"NRAS /KRAS [1, 4]","HRAS /KRAS [2, 5]",IC50 [3] [nM],"NRAS /KRAS [1, 6]","HRAS /KRAS [2, 7]","NRAS /KRAS [1, 8]","HRAS /KRAS [2, 9]"
CCO[C@@H]1C[C@H]2C(=O)NC3(CC(C)(C)C3)C(=O)N(C)[C@@H](C(CC)CC)C(=O)N(C)[C@H](C(=O)N3CCCC3)CC(=O)N(C)[C@@H](CC)C(=O)N[C@@H]([C@@H](C)CC)C(=O)N(C)CC(=O)N(C)[C@H]3C/C=C\CCN(C3=O)[C@@H](Cc3ccc(C)cc3)C(=O)N(C)CC(=O)N[C@@H](CCc3ccc(C(F)(F)F)c(OC)c3)C(=O)N2C1 [PP2171],A (a compound having 10 or more and less than 20 is denoted as A),A (a compound having 10 or more and less than 20 is denoted as A),19.6,,,,
CCO[C@@H]1C[C@H]2C(=O)NC3(CCC3)C(=O)N(C)[C@@H](C3CCCC3)C(=O)N(C)[C@H](C(=O)N3CCOCC3)CC(=O)N(C)[C@@H](CC(C)C)C(=O)N[C@@H]([C@@H](C)CC)C(=O)N(C)CC(=O)N(C)[C@H]3CCCCCN(C3=O)[C@@H](Cc3ccc(F)cc3Cl)C(=O)N(C)CC(=O)N[C@@H](CCc3cc(F)c(C(F)(F)F)c(F)c3)C(=O)N2C1 [PP0918],,,27.7,B (a compound having 3 or more and less than 10 is denoted as B),B (a compound having 3 or more and less than 10 is denoted as B),,
CC[C@H](C)[C@@H]1NC(=O)[C@H](CC(C)C)N(C)C(=O)C[C@@H](C(=O)N2CCOCC2)N(C)C(=O)[C@H](C2CCCC2)N(C)C(=O)C2(CCCC2)NC(=O)[C@@H]2CCCN2C(=O)[C@H](CCc2ccc(C(F)(F)F)c(Cl)c2)NC(=O)CN(C)C(=O)[C@H](Cc2ccc(C)cc2)N(CC2CCCCC2)C(=O)[C@@H]2CCN2C(=O)[C@H](C)N(C)C1=O [PP0085] ([NMeL]I[NMeA][Aze][X28][Sar][hPhe(3-Cl-4-CF3)]P[Ac5c][NMeGly(cPent)][NMeD]-Morpholide; lactam N-11),,,108,C (A compound having a KD ratio of 0.1 or more and less than 3 is denoted as C),C (A compound having a KD ratio of 0.1 or more and less than 3 is denoted as C),,
CCO[C@@H]1C[C@H]2C(=O)NC3(CC(C)(C)C3)C(=O)N(C)[C@@H](C3CCCC3)C(=O)N(C)[C@H](C(=O)N(C)C)CC(=O)N(C)[C@@H](CC(C)C)C(=O)N[C@@H]([C@@H](C)CC)C(=O)N(C)CC(=O)N(C)[C@H]3C/C=C\CCN(C3=O)[C@@H](Cc3ccc(C4CC4)cc3)C(=O)N(C)CC(=O)N[C@@H](CCc3ccc(C(F)(F)F)c(OC)c3)C(=O)N2C1 [PP2691],,,3.5,AA (a compound having 20 or more is denoted as AA),A (a compound having 10 or more and less than 20 is denoted as A),,
CCCN1C(=O)[C@@H]2CCN2C(=O)[C@H](C)N(C)C(=O)[C@H]([C@@H](C)CC)NC(=O)[C@H](CC(C)C)N(C)C(=O)C[C@@H](C(=O)N(C)C)N(C)C(=O)[C@H](C2CCCC2)N(C)C(=O)C2(CCCC2)NC(=O)[C@@H]2CCCN2C(=O)[C@H](CCc2ccc(C(F)(F)F)c(Cl)c2)NC(=O)CN(C)C(=O)[C@@H]1Cc1ccc(C(F)(F)F)cc1 [PP0178] ([NMeL]I[NMeA][Aze][NPrPhe(4-CF3)][Sar][hPhe(3-Cl-4-CF3)]P[Ac5c][NMeGly(cPent)][NMeD]-NMe2; lactam N-11),,,1.5,C (A compound having a KD ratio of 0.1 or more and less than 3 is denoted as C),B (a compound having 3 or more and less than 10 is denoted as B),,
CC[C@H](C)[C@@H]1NC(=O)[C@H](CC2CC2)N(C)C(=O)C[C@@H](C(=O)N2CCCC2)N(C)C(=O)[C@H](C2CCCC2)N(C)C(=O)C2(CCC2)NC(=O)[C@@H]2C[C@H](C)CN2C(=O)[C@H](CCc2cc(F)c(C(F)(F)F)c(F)c2)NC(=O)CN(C)C(=O)[C@H](Cc2ccc(C(F)(F)F)cc2)N2CC/C=C\C[C@@H](C2=O)N(C)C(=O)CN(C)C1=O [PP1510],,,34.5,,,AA (a compound having 20 or more is denoted as AA),A (a compound having 10 or more and less than 20 is denoted as A)
CCC[C@H]1C(=O)N[C@@H]([C@@H](C)CC)C(=O)N(C)CC(=O)N(C)[C@H]2C/C=C\CCN(C2=O)[C@@H](Cc2ccc(C)cc2)C(=O)N(C)CC(=O)N[C@@H](CCc2cc(F)c(C(F)(F)F)c(F)c2)C(=O)N2CC3(CC3)C[C@H]2C(=O)NC2(CC(C)(C)C2)C(=O)N(C)[C@@H](CC(F)(F)F)C(=O)N(C)[C@H](C(=O)N(C)C)CC(=O)N1C [PP3003],,,31.2,AA (a compound having 20 or more is denoted as AA),A (a compound having 10 or more and less than 20 is denoted as A),,
CCC[C@H]1C(=O)N[C@@H]([C@@H](C)CC)C(=O)N(C2CC2)CC(=O)N(C)[C@H]2C/C=C\CCN(C2=O)[C@@H](CC2CCC(F)(F)CC2)C(=O)N(C)CC(=O)N[C@@H](CCc2ccc(C(F)(F)F)c(OC)c2)C(=O)N2C[C@H](OCC)C[C@H]2C(=O)N(C)C2(CCC2)C(=O)N(C)[C@@H](C2CCCC2)C(=O)N(C)[C@H](C(=O)N(C)C)CC(=O)N1C [PP2352],A (a compound having 10 or more and less than 20 is denoted as A),A (a compound having 10 or more and less than 20 is denoted as A),15.6,,,,
"CCCN1C(=O)CN(C)C(=O)CN(C)C(=O)[C@H]([C@@H](C)CC)NC(=O)[C@H](CC(C)C)N(C)C(=O)C[C@@H](C(=O)N(C)C)N(C)C(=O)[C@H](CC(F)(F)F)N(C)C(=O)C2(CCCC2)NC(=O)[C@@H]2CCCN2C(=O)[C@H](CCc2cc(F)c(C(F)(F)F)c(F)c2)NC(=O)CN(C)C(=O)[C@@H]1Cc1ccc(C(F)(F)F)cc1 [PP0746] ([NMeL]I[Sar][Sar][NPrPhe(4-CF3)][Sar][hPhe(3,5-F2-4-CF3)]P[Ac5c][NMeAbu(4,4,4-F3)][NMeD]-NMe2; lactam N-11)",B (a compound having 3 or more and less than 10 is denoted as B),C (A compound having a KD ratio of 0.1 or more and less than 3 is denoted as C),35.4,,,,
CCO[C@@H]1C[C@H]2C(=O)NC3(CCC3)C(=O)N(C)[C@@H](C(CC)CC)C(=O)N(C)[C@H](C)CC(=O)N(C)[C@@H](CC3CC3)C(=O)N[C@@H]([C@@H](C)CC)C(=O)N(C)CC(=O)N(C)[C@H]3C/C=C\CCN(C3=O)[C@@H](Cc3ccc(F)cc3)C(=O)N(C)CC(=O)N[C@@H](CCc3cc(F)c(C(F)(F)F)c(F)c3)C(=O)N2C1 [PP1521],,,173,,,A (a compound having 10 or more and less than 20 is denoted as A),B (a compound having 3 or more and less than 10 is denoted as B)
CC[C@H](C)[C@@H]1NC(=O)[C@H](CC(C)C)N(C)C(=O)C[C@@H](C(=O)N2CCOCC2)N(C)C(=O)[C@H](C2CCCC2)N(C)C(=O)C2(CCOCC2)NC(=O)[C@@H]2CCCN2C(=O)[C@H](CCc2cc(F)c(C(F)(F)F)c(F)c2)NC(=O)CN(C)C(=O)[C@H](Cc2ccc(C(F)(F)F)cc2)N2CCCCC[C@@H](C2=O)N(C)C(=O)CN(C)C1=O [PP0502],A (a compound having 10 or more and less than 20 is denoted as A),B (a compound having 3 or more and less than 10 is denoted as B),1820,,,,
CC[C@H](C)[C@@H]1NC(=O)[C@H](CC)N(C)C(=O)C[C@@H](C(=O)N(C)C)N(C)C(=O)[C@H](C2CCCC2)N(C)C(=O)C2(CC(C)(C)C2)NC(=O)[C@@H]2C[C@H](C)CN2C(=O)[C@H](CCc2cc(F)c(C(F)(F)F)c(F)c2)NC(=O)CN(C)C(=O)[C@H](Cc2ccc(C)cc2)N2CC/C=C\C[C@@H](C2=O)N(C)C(=O)CN(C)C1=O [PP1856],,,1.4,,,A (a compound having 10 or more and less than 20 is denoted as A),A (a compound having 10 or more and less than 20 is denoted as A)
CCO[C@@H]1C[C@H]2C(=O)NC3(CCC3)C(=O)N(C)[C@@H](C3CCCC3)C(=O)N(C)[C@H](C(=O)N3CCOCC3)CC(=O)N(C)[C@@H](C)C(=O)N[C@@H]([C@@H](C)CC)C(=O)N(C)CC(=O)N(C)[C@H]3CCCCN(C3=O)[C@@H](Cc3ccc(C(F)(F)F)cc3)C(=O)N(C)CC(=O)N[C@@H](CCc3cc(F)c(C(F)(F)F)c(F)c3)C(=O)N2C1 [PP0585],B (a compound having 3 or more and less than 10 is denoted as B),B (a compound having 3 or more and less than 10 is denoted as B),6.2,,,,
"CCCN1C(=O)[C@@H]2CCN2C(=O)CN(C)C(=O)[C@H]([C@@H](C)CC)NC(=O)[C@H](CC(C)C)N(C)C(=O)C[C@@H](C(=O)N2CCOCC2)NC(=O)[C@H](C2CCCC2)N(C)C(=O)C2(CCC2)NC(=O)[C@@H]2CC(F)(F)CN2C(=O)[C@H](CCc2ccc(C(F)(F)F)c(Cl)c2)NC(=O)CN(C)C(=O)[C@@H]1Cc1ccc(C(F)(F)F)cc1 [PP0352] ([NMeL]I[Sar][Aze][NPrPhe(4-CF3)][Sar][hPhe(3-Cl-4-CF3)][Pro(4,4-F2)][Ac4c][NMeGly(cPent)]D-Morpholide; lactam N-11)",,,72.4,C (A compound having a KD ratio of 0.1 or more and less than 3 is denoted as C),B (a compound having 3 or more and less than 10 is denoted as B),,
